# Reference: BindingDB's records for doi:10.1021/jm0101390 (Harvard Medical School, 2001)
# Biological target: Aldehyde dehydrogenase, mitochondrial (Mesocricetus auratus)
# Assay: Inhibition of hamster liver aldehyde dehydrogenase ALDH-2
row,Structure (SMILES),IC50 [nM]
1,O=c1c(-c2ccc(O)cc2)coc2cc(OCCCCCCO)ccc12 [7-(6-Hydroxy-hexyloxy)-3-(4-hydroxy-phenyl)-chromen-4-one],120
2,O=C(O)COc1ccc2c(=O)c(-c3ccc(O)cc3)coc2c1 [2-(3-(4-hydroxyphenyl)-4-oxo-4H-chromen-7-yloxy)acetic acid],1200
3,CCOC(=O)CCCCCOc1ccc2c(=O)c(-c3ccc(O)cc3)coc2c1 [6-[3-(4-Hydroxy-phenyl)-4-oxo-4H-chromen-7-yloxy]-hexanoic acid ethyl ester],280
4,O=c1c(-c2ccc(O)cc2)coc2cc(OCCCCCCCCCO)ccc12 [7-(9-Hydroxy-nonyloxy)-3-(4-hydroxy-phenyl)-chromen-4-one],700
5,"CC1=C(c2ccccc2)C(=O)OC2CC(Cl)CCC12 (configuration not stated) [7-Chloro-4-methyl-3-phenyl-4a,5,6,7,8,8a-hexahydro-chromen-2-one]",150
6,O=c1c(-c2ccc(O)cc2)coc2cc(OCCOCCOCCO)ccc12 [7-(2-(2-(2-hydroxyethoxy)ethoxy)ethoxy)-3-(4-hydroxyphenyl)-4H-chromen-4-one],40
7,CCOC(=O)COc1ccc2c(=O)c(-c3ccc(O)cc3)coc2c1 [[3-(4-Hydroxy-phenyl)-4-oxo-4H-chromen-7-yloxy]-acetic acid ethyl ester],130
8,O=C(O)CCCCCCCCCCCCCCCOc1ccc2c(=O)c(-c3ccc(O)cc3)coc2c1 [16-[3-(4-Hydroxy-phenyl)-4-oxo-4H-chromen-7-yloxy]-hexadecanoic acid],> 9000
9,NCCCCOc1ccc2c(=O)c(-c3ccc(O)cc3)coc2c1 [7-(4-Amino-butoxy)-3-(4-hydroxy-phenyl)-chromen-4-one],250
10,CCOc1ccc2c(=O)c(-c3ccc(O)cc3)coc2c1 [7-Ethoxy-3-(4-hydroxy-phenyl)-chromen-4-one],80
11,C=CCOc1ccc2c(=O)c(-c3ccc(O)cc3)coc2c1 [7-Allyloxy-3-(4-hydroxy-phenyl)-chromen-4-one],180
12,O=C(O)CCCCCCCCCCCOc1ccc2c(=O)c(-c3ccc(O)cc3)coc2c1 [12-(3-(4-hydroxyphenyl)-4-oxo-4H-chromen-7-yloxy)dodecanoic acid],130
13,O=c1c(-c2ccc(O)cc2)coc2cc(OCCCCCCCCCCCCO)ccc12 [7-(12-Hydroxy-dodecyloxy)-3-(4-hydroxy-phenyl)-chromen-4-one],1700
14,NCCCCCCOc1ccc2c(=O)c(-c3ccc(O)cc3)coc2c1 [7-(6-Amino-hexyloxy)-3-(4-hydroxy-phenyl)-chromen-4-one],100
15,CC(Oc1ccc2c(=O)c(-c3ccc(O)cc3)coc2c1)C(=O)O (configuration not stated) [2-[3-(4-Hydroxy-phenyl)-4-oxo-4H-chromen-7-yloxy]-propionic acid],2500
16,CCCCCCC(Oc1ccc2c(=O)c(-c3ccc(O)cc3)coc2c1)C(=O)OCC (configuration not stated) [2-[3-(4-Hydroxy-phenyl)-4-oxo-4H-chromen-7-yloxy]-octanoic acid ethyl ester],7200
17,O=C(O)CCCCCCCOc1ccc2c(=O)c(-c3ccc(O)cc3)coc2c1 [8-(3-(4-hydroxyphenyl)-4-oxo-4H-chromen-7-yloxy)octanoic acid],40
18,O=C(O)CCCCOc1ccc2c(=O)c(-c3ccc(O)cc3)coc2c1 [5-[3-(4-Hydroxy-phenyl)-4-oxo-4H-chromen-7-yloxy]-pentanoic acid],100
19,CCCCCCC(Oc1ccc2c(=O)c(-c3ccc(O)cc3)coc2c1)C(=O)O (configuration not stated) [2-[3-(4-Hydroxy-phenyl)-4-oxo-4H-chromen-7-yloxy]-octanoic acid],2000
20,CCCCC(Oc1ccc2c(=O)c(-c3ccc(O)cc3)coc2c1)C(=O)OCC (configuration not stated) [2-[3-(4-Hydroxy-phenyl)-4-oxo-4H-chromen-7-yloxy]-hexanoic acid ethyl ester],4500
21,O=C(O)CCCCCCCCCOc1ccc2c(=O)c(-c3ccc(O)cc3)coc2c1 [10-(3-(4-hydroxyphenyl)-4-oxo-4H-chromen-7-yloxy)decanoic acid],50
22,CCCCCCOc1ccc2c(=O)c(-c3ccc(O)cc3)coc2c1 [7-Hexyloxy-3-(4-hydroxyphenyl)chromen-4-one],1500
23,CCOC(=O)CCCCOc1ccc2c(=O)c(-c3ccc(O)cc3)coc2c1 [5-[3-(4-Hydroxy-phenyl)-4-oxo-4H-chromen-7-yloxy]-pentanoic acid ethyl ester],240
24,O=C(O)CCCCCCOc1ccc2c(=O)c(-c3ccc(O)cc3)coc2c1 [7-[3-(4-Hydroxy-phenyl)-4-oxo-4H-chromen-7-yloxy]-heptanoic acid],50
25,C=CCCCCOc1ccc2c(=O)c(-c3ccc(O)cc3)coc2c1 [7-Hex-5-enyloxy-3-(4-hydroxy-phenyl)-chromen-4-one],150
26,CCCCCCCCCCCCOc1ccc2c(=O)c(-c3ccc(O)cc3)coc2c1 [7-(dodecyloxy)-3-(4-hydroxyphenyl)-4H-chromen-4-one],> 9000
27,CC(C)Oc1ccc2c(=O)c(-c3ccc(O)cc3)coc2c1 [3-(4-Hydroxy-phenyl)-7-isopropoxy-chromen-4-one],80
